# According to PMC6323060, “Expression in eukaryotic cells and purification of synthetic gene encoding enterocin P: a bacteriocin with broad antimicrobial spectrum” (AMB Express, 2019):
# Ends that are not written are not given here.
# Assays:
# Salmonella typhi = assay: MIC, broth micro-dilution (CLSI); format: cell-based; conditions: Salmonella typhi clinical isolate, MHB, approx. 5 × 10^5 CFU/ml, overnight 37 °C, triplicate; for MIC: Salmonella enterica, read-out: Antimicrobial activity MIC
# E. coli ATCC 25922 = assay: MIC, broth micro-dilution (CLSI); conditions: Escherichia coli, ATCC25922, read-out: Antimicrobial activity MIC
# [1] = system: Pseudomonas aeruginosa ATCC 27853; assay: MIC, broth micro-dilution (CLSI); conditions: for MIC: Pseudomonas aeruginosa, ATCC27853, read-out: Antimicrobial activity MIC
# [2] = system: Acinetobacter baumannii ATCC 13304; assay: MIC, broth micro-dilution (CLSI); conditions: ATCC13304, read-out: Antimicrobial activity MIC
# [3] = system: Klebsiella pneumonia ATCC 700603; assay: MIC, broth micro-dilution (CLSI); conditions: for MIC: Klebsiella pneumoniae, ATCC700603, read-out: Antimicrobial activity MIC
# Salmonella paratyphi C = assay: MIC, broth micro-dilution (CLSI); format: cell-based; conditions: Salmonella enterica, read-out: Antimicrobial activity MIC
# [4] = system: Pseudomonas aeruginosa VIM+; assay: MIC, broth micro-dilution (CLSI); conditions: for MIC: Pseudomonas aeruginosa, read-out: Antimicrobial activity MIC
# Shigella dysenteriae = assay: MIC, broth micro-dilution (CLSI); format: cell-based; conditions: for MIC: Shigella dysenteriae, read-out: Antimicrobial activity MIC
# Listeria monocytogenes = assay: MIC, broth micro-dilution (CLSI); conditions: for MIC: Listeria monocytogenes, read-out: Antimicrobial activity MIC
# VRE = assay: MIC, broth micro-dilution (CLSI); conditions: for MIC: Enterococcus, VRE, read-out: Antimicrobial activity MIC
# [5] = system: Staphylococcus aureus ATCC 29213; assay: MIC, broth micro-dilution (CLSI); conditions: for MIC: Staphylococcus aureus, ATCC29213, read-out: Antimicrobial activity MIC
# MRSA ATCC 33591 = assay: MIC, broth micro-dilution (CLSI); conditions: for MIC: Staphylococcus aureus, read-out: Antimicrobial activity MIC
# [6] = system: Staphylococcus aureus ATCC 25923; assay: MIC, broth micro-dilution (CLSI); conditions: for MIC: Staphylococcus aureus, ATCC25923, read-out: Antimicrobial activity MIC
# [7] = system: Enterococcus faecalis ATCC 29212; assay: MIC, broth micro-dilution (CLSI); conditions: for MIC: Enterococcus faecalis, ATCC29212, read-out: Antimicrobial activity MIC
# E. coli (ATCC 25922) [8] = assay: Stability in 50% human plasma, read out as antimicrobial activity (MIC assay); format: in vitro ADME, Escherichia coli; parameters: key: +: presence of activity; −: absence of activity; conditions: 800 μg/ml peptide diluted 1:1 with fresh human plasma (50%), 37 °C
# Method: (§1) To investigate the activities of the EntP peptide in the presence of high salt concentrations, the MIC was determined as described above, except that fixed concentration of NaCl was added to each well of the microtiter plate. Overnight cultures of S. aureus (ATCC 25923) and E. coli (ATCC 25922) as Gram-positive and Gram-negative model strains were incubated in MHB with 0, 50, 100, or 150 mM NaCl for 4 h. Bacteria were serially diluted and plated in triplicate on Trypticase soy agar (HiMedia, India) plates. CFUs were counted after 24 h of incubation at 37 °C. The stability of EntP peptide in 50% human plasma was evaluated as previously described (Hou et al. [2011]). The human plasma was determined to contain no antimicrobial activity before the test. Then 800 μg/ml of recombinant EntP peptide was diluted 1:1 with fresh human plasma and incubated at 37 °C for 0, 3, or 6 h. After incubation, the antimicrobial activity of each sample was determined by MIC assays with S. aureus (ATCC 25923) and E. coli (ATCC 25922).
# S. aureus (ATCC 25923) [9] = assay: Effect of salt (NaCl) on antimicrobial activity; format: cell-based, Staphylococcus aureus; parameters: key: +: presence of activity; −: absence of activity; conditions: 4 h, CFU counted after 24 h at 37 °C, triplicate
# Method: as §1
# E. coli (ATCC 25922) [10] = assay: Effect of salt (NaCl) on antimicrobial activity; format: cell-based, Escherichia coli; parameters: key: +: presence of activity; −: absence of activity; conditions: 4 h, CFU counted after 24 h at 37 °C, triplicate
# Method: as §1
# [11] = system: S. aureus (ATCC 25923) and E. coli (ATCC 25922); assay: Antimicrobial activity in 50% human plasma, overall statement; format: in vitro ADME; conditions: 37 °C, 0, 3 or 6 h, read-out MIC assay
# Method: as §1
# S. aureus (ATCC 25923) [12] = assay: Stability in 50% human plasma, read out as antimicrobial activity (MIC assay); format: in vitro ADME, Staphylococcus aureus; parameters: key: +: presence of activity; −: absence of activity; conditions: 800 μg/ml peptide diluted 1:1 with fresh human plasma (50%), 37 °C
# Method: as §1
compound,measurement,setting,value
CCN1CCN(C(=O)N[C@@H](C(=O)N[C@@H]2C(=O)N3[C@@H]2SC(C)(C)[C@@H]3C(=O)O)c2ccccc2)C(=O)C1=O [Piperacillin],MIC,Salmonella typhi,4 µg/mL
same,MIC,E. coli ATCC 25922,≤ 8 µg/mL
same,MIC,[1],≤ 8 µg/mL
same,MIC,[2],≥ 64 µg/mL
same,MIC,[3],≥ 128 µg/mL
same,MIC,Salmonella paratyphi C,≤ 8 µg/mL
same,MIC,[4],≥ 128 µg/mL
same,MIC,Shigella dysenteriae,4 µg/mL
same,MIC,Listeria monocytogenes,4 µg/mL
CNC(C)C1CCC(N)C(OC2C(N)CC(N)C(OC3OCC(C)(O)C(NC)C3O)C2O)O1 (stereo not drawn) [Gentamicin],MIC,Salmonella typhi,≤ 2 µg/mL
same,MIC,VRE,≥ 16 µg/mL
same,MIC,E. coli ATCC 25922,≤ 1 µg/mL
same,MIC,[1],≤ 16 µg/mL
same,MIC,[2],≥ 16 µg/mL
same,MIC,[5],≤ 1 µg/mL
same,MIC,MRSA ATCC 33591,≥ 16 µg/mL
same,MIC,[3],≥ 16 µg/mL
same,MIC,Salmonella paratyphi C,≤ 1 µg/mL
same,MIC,[4],≥ 16 µg/mL
same,MIC,[6],≤ 1 µg/mL
same,MIC,[7],≤ 1 µg/mL
same,MIC,Shigella dysenteriae,4 µg/mL
same,MIC,Listeria monocytogenes,8 µg/mL
CC(C)(O/N=C(\C(=O)N[C@@H]1C(=O)N2C(C(=O)[O-])=C(C[n+]3ccccc3)CS[C@H]12)c1csc(N)n1)C(=O)O [Ceftazidime],MIC,Salmonella typhi,4 µg/mL
same,MIC,VRE,32 µg/mL
same,MIC,E. coli ATCC 25922,≤ 2 µg/mL
same,MIC,[1],2 µg/mL
same,MIC,[2],≥ 32 µg/mL
same,MIC,[5],≤ 2 µg/mL
same,MIC,MRSA ATCC 33591,16 µg/mL
same,MIC,[3],≥ 16 µg/mL
same,MIC,Salmonella paratyphi C,4 µg/mL
same,MIC,[4],≥ 32 µg/mL
same,MIC,[6],≤ 2 µg/mL
same,MIC,[7],≤ 4 µg/mL
same,MIC,Shigella dysenteriae,≤ 2 µg/mL
same,MIC,Listeria monocytogenes,≤ 4 µg/mL
CC1(C)S[C@@H]2[C@H](NC(=O)[C@H](N)c3ccccc3)C(=O)N2[C@H]1C(=O)O [Ampicillin],MIC,Salmonella typhi,2 µg/mL
same,MIC,E. coli ATCC 25922,≤ 2 µg/mL
same,MIC,[5],≤ 1 µg/mL
same,MIC,[3],> 128 µg/mL
same,MIC,Salmonella paratyphi C,2 µg/mL
same,MIC,[6],≤ 1 µg/mL
same,MIC,[7],≤ 1 µg/mL
same,MIC,Shigella dysenteriae,4 µg/mL
same,MIC,Listeria monocytogenes,2 µg/mL
"enterocin P (ATRSYGNGVYCNNSKCWVNWGEAKENIAGIVISGWASGLAGMGH-{H2N-H2N-H2N-H2N-H2N-H2N}; ends and bridges not checked; UniProt O30434 28-71, looked up) [EntP]",Activity after treatment with plasma,E. coli (ATCC 25922) [8]; 0 h,+
same,Activity after treatment with plasma,E. coli (ATCC 25922) [8]; 3 h,+
same,Activity after treatment with plasma,E. coli (ATCC 25922) [8]; 6 h,+
same,Activity after treatment with salt,S. aureus (ATCC 25923) [9]; 0 mM NaCl in MHB,+
same,Activity after treatment with salt,S. aureus (ATCC 25923) [9]; 50 mM NaCl in MHB,+
same,Activity after treatment with salt,S. aureus (ATCC 25923) [9]; 100 mM NaCl in MHB,+
same,Activity after treatment with salt,S. aureus (ATCC 25923) [9]; 150 mM NaCl in MHB,−
same,Antimicrobial activity MIC,Salmonella typhi,16 µg/mL
same,Antimicrobial activity MIC,"VRE; VRE clinical isolate (resistant strain), broth micro-dilution (CLSI), MHB, approx. 5 × 10^5 CFU/ml, overnight 37 °C, triplicate",64 µg/mL
same,Antimicrobial activity MIC,"[1]; Pseudomonas aeruginosa ATCC 27853, broth micro-dilution (CLSI), MHB, approx. 5 × 10^5 CFU/ml, overnight 37 °C, triplicate",8 µg/mL
same,Antimicrobial activity MIC,"[5]; Staphylococcus aureus ATCC 29213, broth micro-dilution (CLSI), MHB, approx. 5 × 10^5 CFU/ml, overnight 37 °C, triplicate",8 µg/mL
same,Activity after treatment with salt,E. coli (ATCC 25922) [10]; 0 mM NaCl in MHB,+
same,Activity after treatment with salt,E. coli (ATCC 25922) [10]; 50 mM NaCl in MHB,+
same,Activity after treatment with salt,E. coli (ATCC 25922) [10]; 100 mM NaCl in MHB,+
same,Activity after treatment with salt,E. coli (ATCC 25922) [10]; 150 mM NaCl in MHB,−
same,Antimicrobial activity MIC,"MRSA ATCC 33591; MRSA ATCC 33591 (resistant strain), broth micro-dilution (CLSI), MHB, approx. 5 × 10^5 CFU/ml, overnight 37 °C, triplicate",64 µg/mL
same,Antimicrobial activity MIC,"[3]; Klebsiella pneumonia ATCC 700603 (resistant strain), broth micro-dilution (CLSI), MHB, approx. 5 × 10^5 CFU/ml, overnight 37 °C, triplicate",8 µg/mL
same,Antimicrobial activity MIC,"[4]; Pseudomonas aeruginosa VIM+ (resistant strain), broth micro-dilution (CLSI), MHB, approx. 5 × 10^5 CFU/ml, overnight 37 °C, triplicate",256 µg/mL
same,Antimicrobial activity in 50% human plasma compared with PBS,[11],not significantly different from that in PBS
same,Antimicrobial activity MIC,"[6]; Staphylococcus aureus ATCC 25923, broth micro-dilution (CLSI), MHB, approx. 5 × 10^5 CFU/ml, overnight 37 °C, triplicate",8 µg/mL
same,Activity after treatment with plasma,S. aureus (ATCC 25923) [12]; 0 h,+
same,Activity after treatment with plasma,S. aureus (ATCC 25923) [12]; 3 h,+
same,Activity after treatment with plasma,S. aureus (ATCC 25923) [12]; 6 h,+
same,Antimicrobial activity MIC,"[7]; Enterococcus faecalis ATCC 29212, broth micro-dilution (CLSI), MHB, approx. 5 × 10^5 CFU/ml, overnight 37 °C, triplicate",16 µg/mL
same,Antimicrobial activity MIC,"Shigella dysenteriae; Shigella dysenteriae clinical isolate, broth micro-dilution (CLSI), MHB, approx. 5 × 10^5 CFU/ml, overnight 37 °C, triplicate",128 µg/mL
same,Antimicrobial activity MIC,"Listeria monocytogenes; Listeria monocytogenes clinical isolate, broth micro-dilution (CLSI), MHB, approx. 5 × 10^5 CFU/ml, overnight 37 °C, triplicate",32 µg/mL
CN[C@H](CC(C)C)C(=O)N[C@H]1C(=O)N[C@@H](CC(N)=O)C(=O)N[C@H]2C(=O)N[C@H]3C(=O)N[C@H](C(=O)N[C@H](C(=O)O)c4cc(O)cc(O)c4-c4cc3ccc4O)[C@H](O)c3ccc(c(Cl)c3)Oc3cc2cc(c3O[C@@H]2O[C@H](CO)[C@@H](O)[C@H](O)[C@H]2O[C@H]2C[C@](C)(N)[C@H](O)[C@H](C)O2)Oc2ccc(cc2Cl)[C@H]1O [Vancomycin],MIC,VRE,≥ 32 µg/mL
same,MIC,[5],≤ 1 µg/mL
same,MIC,MRSA ATCC 33591,≥ 16 µg/mL
same,MIC,[6],≤ 1 µg/mL
same,MIC,[7],≤ 1 µg/mL
same,MIC,Listeria monocytogenes,1 µg/mL
